The data set has as its system CCRIS mutagenicity, Ames/micronucleus/aberration tests. Kind of data set: CCRIS mutagenicity studies.
The mark [1] stands for this setting: Test System: AMES SALMONELLA TYPHIMURIUM, Strain/Indicator: TA98, Metabolic Activation: NONE, Method: STANDARD PLATE.
Where [2] appears, read: Test System: AMES SALMONELLA TYPHIMURIUM, Strain/Indicator: TA98, Metabolic Activation: RAT, LIVER, S-9, AROCLOR 1254, Method: STANDARD PLATE.
[3] abbreviates: Test System: AMES SALMONELLA TYPHIMURIUM, Strain/Indicator: TA100, Metabolic Activation: NONE, Method: STANDARD PLATE.
[4] abbreviates: Test System: AMES SALMONELLA TYPHIMURIUM, Strain/Indicator: TA100, Metabolic Activation: RAT, LIVER, S-9, AROCLOR 1254, Method: STANDARD PLATE.

The source made the active and inactive calls. No rule for the calls is given here.

Regarding `O=C(O)c1ccccc1`, the mutagenic call is “inactive; negative” (Test System: AMES SALMONELLA TYPHIMURIUM, Strain/Indicator: TA97, Metabolic Activation: HAMSTER, LIVER, S-9, AROCLOR 1254 (10 OR 30%), Method: PREINCUBATION); “inactive; negative” (Test System: AMES SALMONELLA TYPHIMURIUM, Strain/Indicator: TA97, Metabolic Activation: NONE, Method: PREINCUBATION); “inactive; negative” (Test System: AMES SALMONELLA TYPHIMURIUM, Strain/Indicator: TA97, Metabolic Activation: RAT, LIVER, S-9, AROCLOR 1254, Method: PREINCUBATION); “inactive; negative” (Test System: AMES SALMONELLA TYPHIMURIUM, Strain/Indicator: TA97, Metabolic Activation: RAT,LIVER, S-9, AROCLOR 1254 (10 OR 30%), Method: PREINCUBATION); “inactive; negative” (Test System: AMES SALMONELLA TYPHIMURIUM, Strain/Indicator: TA97A, Metabolic Activation: NONE, Method: PREINCUBATION); “inactive; negative” (Test System: AMES SALMONELLA TYPHIMURIUM, Strain/Indicator: TA97A, Metabolic Activation: RAT, LIVER, S-9, AROCLOR 1254, Method: PREINCUBATION). Further, the mutagenic call runs as follows: (Test System: AMES SALMONELLA TYPHIMURIUM, Strain/Indicator: TA98, Metabolic Activation: GUINEA PIG, LIVER, S-9, PCB, Method: PREINCUBATION) “inactive; negative”; (Test System: AMES SALMONELLA TYPHIMURIUM, Strain/Indicator: TA98, Metabolic Activation: HAMSTER, LIVER, S-9, AROCLOR 1254 (10 OR 30%), Method: PREINCUBATION) “inactive; negative”; (Test System: AMES SALMONELLA TYPHIMURIUM, Strain/Indicator: TA98, Metabolic Activation: HAMSTER, LIVER, S-9, PCB, Method: PREINCUBATION) “inactive; negative”; (Test System: AMES SALMONELLA TYPHIMURIUM, Strain/Indicator: TA98, Metabolic Activation: MOUSE, LIVER, S-9, PCB, Method: PREINCUBATION) “inactive; negative”; (Test System: AMES SALMONELLA TYPHIMURIUM, Strain/Indicator: TA98, Metabolic Activation: NONE, Method: PREINCUBATION) “inactive; negative”; under setting [1], “inactive; negative”. Besides, the mutagenic call is, setting by setting: (Test System: AMES SALMONELLA TYPHIMURIUM, Strain/Indicator: TA98, Metabolic Activation: RAT, LIVER, S-9, AROCLOR 1254 (10%), Method: PREINCUBATION) “inactive; negative”; (Test System: AMES SALMONELLA TYPHIMURIUM, Strain/Indicator: TA98, Metabolic Activation: RAT, LIVER, S-9, AROCLOR 1254 (30%), Method: PREINCUBATION) “inactive; negative”; under setting [2], “inactive; negative”; (Test System: AMES SALMONELLA TYPHIMURIUM, Strain/Indicator: TA98, Metabolic Activation: RAT, LIVER, S-9, PCB, Method: PREINCUBATION) “inactive; negative”; (Test System: AMES SALMONELLA TYPHIMURIUM, Strain/Indicator: TA100, Metabolic Activation: GUINEA PIG, LIVER, S-9, PCB, Method: PREINCUBATION) “inactive; negative”; (Test System: AMES SALMONELLA TYPHIMURIUM, Strain/Indicator: TA100, Metabolic Activation: HAMSTER, LIVER, S-9, AROCLOR 1254 (10 OR 30%), Method: PREINCUBATION) “inactive; negative”. Moreover, the mutagenic call runs as follows: (Test System: AMES SALMONELLA TYPHIMURIUM, Strain/Indicator: TA100, Metabolic Activation: HAMSTER, LIVER, S-9, PCB, Method: PREINCUBATION) “inactive; negative”; (Test System: AMES SALMONELLA TYPHIMURIUM, Strain/Indicator: TA100, Metabolic Activation: MOUSE, LIVER, S-9, PCB, Method: PREINCUBATION) “inactive; negative”; (Test System: AMES SALMONELLA TYPHIMURIUM, Strain/Indicator: TA100, Metabolic Activation: NONE, Method: PREINCUBATION) “inactive; negative”; under setting [3], “inactive; negative”; (Test System: AMES SALMONELLA TYPHIMURIUM, Strain/Indicator: TA100, Metabolic Activation: RAT, LIVER, S-9, AROCLOR 1254 (10 OR 30%), Method: PREINCUBATION) “inactive; negative”; under setting [4], “inactive; negative”. The mutagenic call by setting is: (Test System: AMES SALMONELLA TYPHIMURIUM, Strain/Indicator: TA100, Metabolic Activation: RAT, LIVER, S-9, PCB, Method: PREINCUBATION) “inactive; negative”; (Test System: AMES SALMONELLA TYPHIMURIUM, Strain/Indicator: TA102, Metabolic Activation: NONE, Method: PREINCUBATION) “inactive; negative”; (Test System: AMES SALMONELLA TYPHIMURIUM, Strain/Indicator: TA102, Metabolic Activation: RAT, LIVER, S-9, AROCLOR 1254, Method: PREINCUBATION) “inactive; negative”; (Test System: AMES SALMONELLA TYPHIMURIUM, Strain/Indicator: TA1535, Metabolic Activation: HAMSTER, LIVER, S-9, AROCLOR 1254 (10 OR 30%), Method: PREINCUBATION) “inactive; negative”; (Test System: AMES SALMONELLA TYPHIMURIUM, Strain/Indicator: TA1535, Metabolic Activation: NONE, Method: PREINCUBATION) “inactive; negative”; (Test System: AMES SALMONELLA TYPHIMURIUM, Strain/Indicator: TA1535, Metabolic Activation: NONE, Method: STANDARD PLATE) “inactive; negative”. Moreover, the mutagenic call is “inactive; negative” (Test System: AMES SALMONELLA TYPHIMURIUM, Strain/Indicator: TA1535, Metabolic Activation: RAT, LIVER, S-9, AROCLOR 1254 (10%), Method: PREINCUBATION); “inactive; negative” (Test System: AMES SALMONELLA TYPHIMURIUM, Strain/Indicator: TA1535, Metabolic Activation: RAT, LIVER, S-9, AROCLOR 1254 (30%), Method: PREINCUBATION); “inactive; negative” (Test System: AMES SALMONELLA TYPHIMURIUM, Strain/Indicator: TA1535, Metabolic Activation: RAT, LIVER, S-9, AROCLOR 1254, Method: STANDARD PLATE); “inactive; negative” (Test System: AMES SALMONELLA TYPHIMURIUM, Strain/Indicator: TA1537, Metabolic Activation: HAMSTER, LIVER, S-9, AROCLOR 1254 (10 OR 30%), Method: PREINCUBATION); “inactive; negative” (Test System: AMES SALMONELLA TYPHIMURIUM, Strain/Indicator: TA1537, Metabolic Activation: NONE, Method: PREINCUBATION); “inactive; negative” (Test System: AMES SALMONELLA TYPHIMURIUM, Strain/Indicator: TA1537, Metabolic Activation: NONE, Method: STANDARD PLATE). Besides, the mutagenic call is “inactive; negative” (Test System: AMES SALMONELLA TYPHIMURIUM, Strain/Indicator: TA1537, Metabolic Activation: RAT, LIVER, S-9, AROCLOR 1254 (10%), Method: PREINCUBATION); “inactive; negative” (Test System: AMES SALMONELLA TYPHIMURIUM, Strain/Indicator: TA1537, Metabolic Activation: RAT, LIVER, S-9, AROCLOR 1254 (30%), Method: PREINCUBATION); “inactive; negative” (Test System: AMES SALMONELLA TYPHIMURIUM, Strain/Indicator: TA1537, Metabolic Activation: RAT, LIVER, S-9, AROCLOR 1254, Method: STANDARD PLATE); “inactive; negative” (Test System: AMES SALMONELLA TYPHIMURIUM, Strain/Indicator: TA1538, Metabolic Activation: NONE, Method: STANDARD PLATE); “inactive; negative” (Test System: AMES SALMONELLA TYPHIMURIUM, Strain/Indicator: TA1538, Metabolic Activation: RAT, LIVER, S-9, AROCLOR 1254, Method: STANDARD PLATE); “inactive; negative” (Test System: Ames Salmonella typhimurium, Strain/Indicator: TA98, Metabolic Activation: None, Method: Direct plate incorporation). In addition, the mutagenic call was “inactive; negative” (Test System: Ames Salmonella typhimurium, Strain/Indicator: TA98, Metabolic Activation: Rat, liver, S-9, Aroclor 1254, Method: Direct plate incorporation); “inactive; negative” (Test System: Ames Salmonella typhimurium, Strain/Indicator: TA100, Metabolic Activation: None, Method: Direct plate incorporation); “inactive; negative” (Test System: Ames Salmonella typhimurium, Strain/Indicator: TA100, Metabolic Activation: Rat, liver, S-9, Aroclor 1254, Method: Direct plate incorporation); “inactive; negative” (Test System: E. COLI, Strain/Indicator: WP2, Metabolic Activation: NONE, Method: STANDARD PLATE); “inactive; negative” (Test System: E. COLI, Strain/Indicator: WP2, Metabolic Activation: RAT, LIVER, S-9, AROCLOR 1254, Method: STANDARD PLATE).

As for `CC(=O)OC1Cc2c(C)ccc3cc4c(ccc5ccccc54)c1c23` (centres undefined), the mutagenic call is “active; positive” under setting [1] and “active; positive” under setting [3].

Consider `Nc1cc(Cl)c(Cl)c(Cl)c1`, for which the mutagenic call is “inactive; negative” under setting [1], “inactive; negative” under setting [2], “inactive; negative” under setting [3] and “inactive; negative” under setting [4].

Consider `CC(=O)Nc1cccc2cc(F)cnc12`, for which the mutagenic call (Test System: AMES SALMONELLA TYPHIMURIUM, Strain/Indicator: TA100, Metabolic Activation: RAT, LIVER, S-9, PHENOBARBITAL AND 5,6-BENZOFLAVONE, Method: PREINCUBATION) is “active; positive”.

Source of the values: PubChem BioAssay AID1259407 (Chemical Carcinogenesis Research Information System (CCRIS), 2018).
